Experimental data: patent publication US9353090B2, “Heterocyclic carboxylic acids as activators of soluble guanylate cyclase” (Boehringer Ingelheim International GmbH, priority 2014, dated 2016)
≈ marks a conversion by molar mass, not a printed value.

Columns and labels:
[1] = physchem; conditions: kinetic from dmso stock
[2] = target: human soluble guanylate cyclase alpha 1 and beta 1 subunits (sGC) (Homo sapiens (Human), UniProt Q02108+Q02153); experiment: sGC cellular activator assay (cGMP, HTRF), in the presence and absence of 50% human serum; format: cell-based; conditions: CHO cells stably expressing human sGC alpha 1/beta 1, preincubated with 40 microM ODQ; cGMP by HTRF; Table 2 does not state whether with or without 50% human serum
How it was run: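 First, CHO-sGC (human α1β1) cells get 1 h ODQ at 40 microM with IBMX and 0.1% BSA. Finally, cGMP is quantified by HTRF and EC50 computed.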

[3] = Human liver microsome (HLM) metabolic stability assay; format: in vitro ADME; conditions: human liver microsomes
How it was run: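 Remaining parent measured by LC/MS/MS (ESI, MRM) at 5, 15, 30 and 60 min relative to 0 min. Incubation: 1 uM compound, HLMs, NADPH-started, 37° C., 60 min total, single replicate. Slope of ln(% remaining) gives t1/2 = 0.693/slope, then CLint, CLh and % Qh.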

[4] = pH 2.2, aqueous buffer, Solubility (pH 2.2)
[5] = pH 4.5, aqueous buffer, Solubility (pH 4.5)
[6] = pH 6.8, aqueous buffer, Solubility (pH 6.8)

human soluble guanylate cyclase alpha 1 and beta 1 subunits (sGC), sequence (Q02108 whole entry partner): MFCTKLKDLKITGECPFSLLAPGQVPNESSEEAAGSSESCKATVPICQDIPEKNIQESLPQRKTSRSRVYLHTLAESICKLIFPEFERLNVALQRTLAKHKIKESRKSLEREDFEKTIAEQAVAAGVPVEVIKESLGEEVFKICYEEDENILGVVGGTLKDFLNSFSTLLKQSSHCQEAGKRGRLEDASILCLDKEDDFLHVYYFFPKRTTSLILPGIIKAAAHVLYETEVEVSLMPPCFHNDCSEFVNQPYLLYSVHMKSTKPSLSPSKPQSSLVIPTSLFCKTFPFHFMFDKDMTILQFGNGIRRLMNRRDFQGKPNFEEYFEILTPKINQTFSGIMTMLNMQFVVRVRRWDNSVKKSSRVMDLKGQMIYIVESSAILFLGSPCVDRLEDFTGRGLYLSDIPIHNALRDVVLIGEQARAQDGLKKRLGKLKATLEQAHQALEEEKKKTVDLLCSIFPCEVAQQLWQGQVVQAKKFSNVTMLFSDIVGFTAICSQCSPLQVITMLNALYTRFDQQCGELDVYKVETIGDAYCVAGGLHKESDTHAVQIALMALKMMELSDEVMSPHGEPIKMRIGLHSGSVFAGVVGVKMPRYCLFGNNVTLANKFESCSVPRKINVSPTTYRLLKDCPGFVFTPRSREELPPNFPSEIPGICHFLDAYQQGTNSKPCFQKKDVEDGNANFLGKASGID
human soluble guanylate cyclase alpha 1 and beta 1 subunits (sGC), sequence (Q02153 whole entry): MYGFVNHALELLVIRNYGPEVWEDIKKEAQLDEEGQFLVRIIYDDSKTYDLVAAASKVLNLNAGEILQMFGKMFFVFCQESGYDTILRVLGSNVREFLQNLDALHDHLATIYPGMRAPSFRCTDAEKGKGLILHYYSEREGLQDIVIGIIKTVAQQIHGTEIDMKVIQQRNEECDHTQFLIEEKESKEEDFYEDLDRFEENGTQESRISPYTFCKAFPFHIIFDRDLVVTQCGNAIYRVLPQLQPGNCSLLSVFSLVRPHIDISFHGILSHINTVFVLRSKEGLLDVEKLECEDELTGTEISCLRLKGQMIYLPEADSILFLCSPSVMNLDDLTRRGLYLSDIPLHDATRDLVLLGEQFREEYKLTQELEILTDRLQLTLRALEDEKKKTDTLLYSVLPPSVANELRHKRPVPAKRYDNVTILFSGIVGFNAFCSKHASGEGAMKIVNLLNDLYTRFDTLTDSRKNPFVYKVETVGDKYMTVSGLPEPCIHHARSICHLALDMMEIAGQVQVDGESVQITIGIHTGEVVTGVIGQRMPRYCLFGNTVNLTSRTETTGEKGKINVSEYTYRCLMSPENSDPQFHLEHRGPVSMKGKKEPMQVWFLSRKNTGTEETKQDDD

SMILES	solubility at 24 h [1, 4]	solubility at 24 h [1, 5]	solubility at 24 h [1, 6]	EC50 [2]	Metabolic stability (Qh %), % hepatic blood flow [3]
Cc1cc(CN2CCc3c(ccc(COc4ccccc4-c4cccc(N5CC[C@@]6(C(=O)O)C[C@H]6C5)n4)c3C)C2)no1 [Compound 311]	99.5 µg/mL (≈ 176 µM)	61.6 µg/mL (≈ 109 µM)	0.5 µg/mL (≈ 0.885 µM)	3 nM	63%
COC[C@H]1N(c2cccc(-c3cccc(C)c3OCc3ccc4c(n3)CCN(C3CCOCC3)C4)n2)C[C@@H]2C[C@@]21C(=O)O [Compound 318]	151 µg/mL (≈ 258 µM)	123 µg/mL (≈ 211 µM)	73.7 µg/mL (≈ 126 µM)	739 nM	<24%
Cc1cccc(-c2csc(N3CC[C@@]4(C(=O)O)C[C@H]4C3)n2)c1OCc1ccc2c(c1)CCN(C1COC1)C2 [Compound 85]	120 µg/mL (≈ 226 µM)	52 µg/mL (≈ 97.8 µM)	55 µg/mL (≈ 103 µM)	28 nM	29%
Cc1cccc(-c2cccc(N3C[C@@H]4C[C@]4(C(=O)O)C3)n2)c1OCc1ccc2c(c1)CCN(C1CCOCC1)C2 [Compound 20]	110 µg/mL (≈ 204 µM)	96 µg/mL (≈ 178 µM)	64 µg/mL (≈ 119 µM)	21 nM	<24%
COc1cc(COc2c(C)cccc2-c2csc(N3CC[C@H](C(=O)O)[C@H](OC)C3)n2)cc2c1CN(C1CCOCC1)CC2 [Compound 177]	140 µg/mL (≈ 230 µM)	100 µg/mL (≈ 165 µM)	96 µg/mL (≈ 158 µM)	47 nM	<24%
Cc1c(COc2ccccc2-c2csc(N3CC[C@@]4(C(=O)O)C[C@H]4C3)n2)ccc2c1CCN(C1CCOCC1)C2 [Compound 83]	120 µg/mL (≈ 214 µM)	47 µg/mL (≈ 84 µM)	13 µg/mL (≈ 23.2 µM)	4 nM	<24%
CO[C@@H]1CN(c2nc(-c3cc(F)cc(C)c3OCc3ccc4c(c3C)CCN(C3COC3)CC4)cs2)CC[C@@H]1C(=O)O [Compound 327]	99.8 µg/mL (≈ 168 µM)	51.8 µg/mL (≈ 87 µM)	59.1 µg/mL (≈ 99.2 µM)	5 nM	61%
Cc1ccc(OCc2ccc3c(c2)CCN(C2CCOCC2)C3)c(-c2csc(N3C[C@@H]4C[C@]4(C(=O)O)C3)n2)c1 [Compound 145]	110 µg/mL (≈ 202 µM)	62 µg/mL (≈ 114 µM)	28 µg/mL (≈ 51.3 µM)	162 nM	<24%
CO[C@H]1CN(c2cccc(-c3cccc(C)c3OCc3ccc4c(c3C)CCN(C3COC3)CC4)n2)CC[C@H]1C(=O)O [Compound 282]	137 µg/mL (≈ 240 µM)	99.6 µg/mL (≈ 174 µM)	80.5 µg/mL (≈ 141 µM)	14 nM	58%
COc1ccc(OCc2ccc3c(c2C)CCN(C2CCOCC2)C3)c(-c2csc(N3CC[C@@]4(C(=O)O)C[C@H]4C3)n2)c1 [Compound 200]	130 µg/mL (≈ 221 µM)	43.6 µg/mL (≈ 73.9 µM)	10.5 µg/mL (≈ 17.8 µM)	25 nM	<24%
COC[C@H]1N(c2cccc(-c3cccc(C)c3OCc3cc(C)c4c(c3)CN(C3CCOCC3)C4)n2)C[C@@H]2C[C@@]21C(=O)O [Compound 222]	132 µg/mL (≈ 227 µM)	130 µg/mL (≈ 222 µM)	119 µg/mL (≈ 203 µM)	23 nM	<24%
CO[C@H]1CN(c2nc(-c3cc(C)ccc3OCc3cc(C)c4c(c3C)CCN(C3CCOCC3)C4)cs2)CC[C@H]1C(=O)O [Compound 181]	120 µg/mL (≈ 198 µM)	53 µg/mL (≈ 87.5 µM)	5 µg/mL (≈ 8.25 µM)	23 nM	<24%
COC[C@H]1N(c2cccc(-c3cccc(C)c3OCc3cc(C)c4c(c3)CCN(C3CCOC3)C4)n2)C[C@@H]2C[C@@]21C(=O)O (some centres unmarked) [Compound 50]	120 µg/mL (≈ 206 µM)	96 µg/mL (≈ 164 µM)	77 µg/mL (≈ 132 µM)	8 nM	26%
Cc1ccc(OCc2ccc3c(c2C)CCN(C2CCOC2)CC3)c(-c2csc(N3CC[C@@]4(C(=O)O)C[C@H]4C3)n2)c1 (some centres unmarked) [Compound 133]	90 µg/mL (≈ 157 µM)	12 µg/mL (≈ 20.9 µM)	1.6 µg/mL (≈ 2.79 µM)	18 nM	43%
CO[C@H]1CN(c2nc(-c3cccc(C)c3OCc3ccc4c(c3C)CCN(C3COC3)C4)cs2)CC[C@H]1C(=O)O [Compound 166]	110 µg/mL (≈ 195 µM)	74 µg/mL (≈ 131 µM)	82 µg/mL (≈ 145 µM)	17 nM	<24%
Cc1cc(COc2c(C)cccc2-c2csc(N3C[C@H]4C[C@@]4(C(=O)O)[C@@H]3C)n2)cc2c1CN(C1COC1)CC2 [Compound 158]	94 µg/mL (≈ 172 µM)	53 µg/mL (≈ 97.1 µM)	65 µg/mL (≈ 119 µM)	37 nM	<24%
Cc1cc(COc2c(C)cccc2-c2csc(N3CC[C@@]4(C(=O)O)C[C@H]4C3)n2)cc2c1CN(C1CCC(F)(F)CC1)CC2 [Compound 303]	141 µg/mL (≈ 232 µM)	16.4 µg/mL (≈ 27 µM)	1 µg/mL (≈ 1.65 µM)	2 nM	79%
COc1cc(COc2c(Cl)cccc2-c2csc(N3CC[C@@H](C(=O)O)[C@@H](OC)C3)n2)cc2c1CN(C1CCOCC1)CC2 [Compound 264]	135 µg/mL (≈ 215 µM)	56.6 µg/mL (≈ 90.1 µM)	51.8 µg/mL (≈ 82.5 µM)	4 nM	<24%
COC[C@@H]1N(c2cccc(-c3cccc(C)c3OCc3cc(C)c4c(c3)CCN(C3CCOCC3)C4)n2)C[C@@H]2C[C@@]21C(=O)O [Compound 62]	130 µg/mL (≈ 217 µM)	130 µg/mL (≈ 217 µM)	130 µg/mL (≈ 217 µM)	465 nM	<24%
Cc1cccc(-c2csc(N3CC[C@@]4(C(=O)O)C[C@H]4C3)n2)c1OCc1ccc2c(c1C)CCN(C1CCOC1)C2 (some centres unmarked) [Compound 88]	120 µg/mL (≈ 214 µM)	69 µg/mL (≈ 123 µM)	48 µg/mL (≈ 85.8 µM)	4 nM	43%
COC[C@H]1N(c2cccc(-c3cccc(C)c3OCc3ccc4c(c3)CCN(C3CCOC3)C4)n2)C[C@@H]2C[C@@]21C(=O)O (mixture of isomers) [Compound 45]	140 µg/mL	100 µg/mL	81 µg/mL	76 nM	<24%
Cc1cccc(-c2csc(N3C[C@@H]4C[C@]4(C(=O)O)C3)n2)c1OCc1ccc2c(c1C)CCN(C1CCOCC1)C2 [Compound 136]	110 µg/mL (≈ 197 µM)	76 µg/mL (≈ 136 µM)	62 µg/mL (≈ 111 µM)	18 nM	<24%
Cc1c(COc2ccccc2-c2cccc(N3CC[C@@]4(C(=O)O)C[C@H]4C3)n2)ccc2c1CCN([C@H]1CCOC1)C2 [Compound 7]	150 µg/mL (≈ 278 µM)	120 µg/mL (≈ 222 µM)	59 µg/mL (≈ 109 µM)	11 nM	45%
COC[C@H]1N(c2cccc(-c3cc(C)ccc3OCc3cc(C)c4c(c3)CCN(C3CCOCC3)C4)n2)C[C@@H]2C[C@@]21C(=O)O [Compound 219]	146 µg/mL (≈ 245 µM)	142 µg/mL (≈ 238 µM)	137 µg/mL (≈ 229 µM)	263 nM	<24%
CCc1cc(COc2c(C)cccc2-c2cccc(N3C[C@@H]4C[C@]4(C(=O)O)[C@H]3COC)n2)cc2c1CN(C1CCOCC1)CC2 [Compound 53]	130 µg/mL (≈ 212 µM)	110 µg/mL (≈ 180 µM)	80 µg/mL (≈ 131 µM)	9 nM	<24%
